According to patent publication EP3895711A1, “CYCLOISOMALTOTETRAOSE, CYCLOISOMALTOTETRAOSE PRODUCTION ENZYME, AND PRODUCTION METHODS AND USES THEREOF” (Hayashibara Co., Ltd., priority 2018, dated 2020):

Legend:
[1] = system: cycloisomaltotetraose-forming enzyme from Agreia sp. D1110 (NITE BP-02815); test: Substrate specificity of cycloisomaltotetraose-forming enzyme (TLC of reaction mixtures); format: biochemical; conditions: substrate 1% (w/v), 20 units/g-solid of enzyme, pH 6.0, 40°C, 24 hours; further: key: - : Not formed; + : Slightly formed; ++ : Formed; +++ : Significantly formed
Description: Substrate specificity of cycloisomaltotetraose-forming enzyme was investigated using various saccharides as substrates. Aqueous solutions containing D-glucose, maltose, isomaltose, panose, isomaltotriose, isomaltotetraose, isomaltopentaose, isomaltohexaose, isomaltoheptaose, dextran T10 (average molecular weight: 10,000, commercialized by Pharmacosmos A/s., Denmark), dextran T70 (average molecular weight: 70,000, commercialized by Pharmacosmos A/s., Denmark), or dextran T2000 (average molecular weight: 2,000,000, commercialized by Pharmacosmos A/s., Denmark) were prepared as substrate solutions. To each substrate solution, acetate buffer and calcium chloride were added to give final concentrations of 50 mM and 1 mM, respectively, and then resulting solutions were admixed with 20 units/g-solid of cycloisomaltotetraose-forming enzyme from Agreia sp. […] To examine the saccharides in each reaction mixture before and after the reaction, saccharides were separated by silica gel thin-layer chromatography (hereinafter, abbreviated as "TLC") using "[…] 60F254", a TLC aluminum plate (10 x 20 cm) and a solvent (2-propanol/1-butanol/water, volume ratio of 12:3:4) with two-times ascending method. The separated saccharides on the plate were detected by visualizing the spots with sulfate-methanol method, and the degree of forming cycloisomaltotetraose from each substrate and the products other than cycloisomaltotetraose were investigated.

[2] = system: cycloisomaltotetraose-forming enzyme from Agreia sp. D1110 (NITE BP-02815); test: Action of cycloisomaltotetraose-forming enzyme on isomaltopentaose (TLC); format: biochemical; conditions: 1% (w/v) isomaltopentaose, 2.0 units/g-isomaltopentaose, pH 6.0, 40°C, 24 hours
Method: As a part of examining the substrate specificity of cycloisomaltotetraose-forming enzyme, the action of the enzyme on isomaltopentaose was investigated. To 0.5 mL of 50 mM acetate buffer (pH 6.0) containing 1% (w/v) of isomaltopentaose (prepared in Hayashibara Co., Ltd., Okayama, Japan, purity: 98.1% by weight) and 0.006% (w/v) hinokitiol as a preservative, 2.0 units/g-isomaltopentaose of a purified cycloisomaltotetraose-forming enzyme from Agreia sp. D1110 (NITE BP-02815), obtained by the method in Experiment 6, was added, and the resulting mixture was incubated at 40°C for 24 hours and then heated at 100°C for 10 min to inactivate the enzyme. To examine the reaction products in the reaction mixture, saccharides were separated by TLC using "KIESELGEL 60", a TLC aluminum plate (10 x 20 cm) and a solvent (acetonitrile/water/ethyl acetate/1-propanol, volume ratio of 85:70:20:50) and two-times ascending method. The separated saccharides on the plate were detected by visualizing the spots with sulfate-methanol method, and the reaction products formed from isomaltopentaose were investigated.

[3] = Digestivity test using small intestinal mucosal enzyme; format: in vitro ADME; conditions: rat, small intestine mucosal enzyme, 1% by weight, pH 6.0, 50 units/g-cycloisomaltotetraose, 37°C, read-out: residual rate (%) of cycloisomaltotetraose after the enzymatic reaction
Method: To the substrate solution, 50 units/g-cycloisomaltotetraose, as maltose-hydrolyzing activity, of small intestine mucosal enzyme (α-glucosidase) prepared from rat small intestine acetone powder, commercialized by Sigma-Aldrich Co., was added, and the resulting mixture was incubated at 37°C for 24 hours and then heated at 100°C for 10 min to inactivate the enzyme. The amounts of cycloisomaltotetraose in the solution before and after the reaction were determined by HPLC, and the residual rate (%) of cycloisomaltotetraose after the enzymatic reaction, i.e., (the amount after the reaction/the amount before the reaction) x 100, was measured.

[4] = Thermal stability of cycloisomaltotetraose in aqueous solution; format: physicochemical; conditions: 7% (w/v) aqueous solution, 120°C
Method: An aqueous cycloisomaltotetraose solution with a solid concentration of 7% (w/v) was prepared by dissolving the crystalline cycloisomaltotetraose preparation with a purity of 99.5% by weight, obtained in Experiment 3-1. Eight milliliters each of the aqueous solution was taken in a glass centrifuge tube with a screw cap, sealed, and then heated for 30 to 90 min at 120°C. The solutions before heating and those after heating for various times were subjected to the measurement for the degree of coloring and for the cycloisomaltotetraose purity by HPLC method. The degree of coloring was defined as the absorbance at 480 nm measured by using a 1-cm cell.

[5] = pH stability of cycloisomaltotetraose; format: physicochemical; conditions: 4% (w/v), 100°C; for Degree of coloring (A480nm): 24 hours; for remaining at 24 h: read-out: Purity of cycloisomaltotetraose (% by weight)
Method: The crystalline cycloisomaltotetraose preparation obtained in Experiment 3-1 was dissolved in various buffers to make 7 kinds of aqueous cycloisomaltotetraose solutions with a cycloisomaltotetraose concentration of 4% (w/v), and with the pH adjusted to 3 to 9. Eight milliliters each of the aqueous solution was taken into a glass centrifuge tube with a screw cap, sealed, and heated at 100°C for 24 hours. After cooling them, the measurement for the degree of coloring degree of those aqueous solution and for the cycloisomaltotetraose purity were carried out in the same manner in Experiment 16.

α-glucosidase = target: T1, α-glucosidase (Aspergillus niger, UniProt P56526); test: Preliminary test: hydrolysis by α-glucosidase; format: biochemical; conditions: preliminary test using a small amount of the reaction product
T1 construct: purchased Amano Enzyme Co., Ltd. TRANSGLUCOSIDASE L Amano
T1 sequence (P56526 26-985): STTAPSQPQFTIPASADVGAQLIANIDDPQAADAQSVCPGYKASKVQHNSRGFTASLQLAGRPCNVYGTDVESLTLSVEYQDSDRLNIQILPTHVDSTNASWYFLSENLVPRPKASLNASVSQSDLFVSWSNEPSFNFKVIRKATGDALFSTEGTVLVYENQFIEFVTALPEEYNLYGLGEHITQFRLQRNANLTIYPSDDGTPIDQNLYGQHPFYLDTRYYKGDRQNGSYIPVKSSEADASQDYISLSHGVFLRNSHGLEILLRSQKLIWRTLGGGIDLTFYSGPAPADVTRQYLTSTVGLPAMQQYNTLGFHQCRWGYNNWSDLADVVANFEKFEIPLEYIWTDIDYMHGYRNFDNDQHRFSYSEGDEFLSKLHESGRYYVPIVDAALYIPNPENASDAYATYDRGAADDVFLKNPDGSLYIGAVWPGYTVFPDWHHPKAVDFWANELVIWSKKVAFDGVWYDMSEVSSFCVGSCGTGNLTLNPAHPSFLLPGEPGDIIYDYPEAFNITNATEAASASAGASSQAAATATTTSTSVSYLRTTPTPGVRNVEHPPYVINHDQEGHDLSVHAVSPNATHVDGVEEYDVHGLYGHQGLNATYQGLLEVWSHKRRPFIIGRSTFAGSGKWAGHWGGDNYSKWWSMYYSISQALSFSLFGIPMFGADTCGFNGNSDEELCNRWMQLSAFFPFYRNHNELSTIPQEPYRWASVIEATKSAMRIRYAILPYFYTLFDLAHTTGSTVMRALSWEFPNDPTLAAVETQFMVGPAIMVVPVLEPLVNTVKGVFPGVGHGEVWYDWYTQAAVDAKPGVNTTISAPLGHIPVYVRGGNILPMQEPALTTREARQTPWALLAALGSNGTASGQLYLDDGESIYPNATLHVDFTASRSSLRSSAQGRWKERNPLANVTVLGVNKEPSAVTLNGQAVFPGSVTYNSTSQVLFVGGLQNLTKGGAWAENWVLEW
Method: (§1) The enzymatic reaction product containing Unknown Saccharide I, obtained in Experiment 1-2, was adjusted to pH 5.0, admixed with 100 U/g-solid of "TRANSGLUCOSIDASE L Amano", α-glucosidase produced by Amano Enzyme Co., Ltd., and 1,000 U/g-solid of glucoamylase commercialized by Nagase ChemteX Co., Ltd., and then reacted at 50°C for 4 days. After the reaction, the reaction was stopped by heating the reaction mixture at about 100°C for 10 min. The saccharides in the resulting reaction mixture were analyzed by analytical high-performance liquid chromatography (hereinafter, abbreviated as "analytical HPLC"). As a result, D-glucose and Unknown Saccharide I were detected at elution times of 58.7 min and 49.4 min, respectively. The saccharide composition of the reaction mixture is 30.0% (w/w) of D-glucose, 65.5% (w/w) of Unknown Saccharide I, and 4.5% (w/w) of partial dextran hydrolysates containing isomaltooligosaccharides.

glucoamylase = test: Preliminary test: hydrolysis by glucoamylase; format: biochemical; conditions: preliminary test using a small amount of the reaction product
Method: as §1

[6] = Preliminary test: alkaline treatment; format: physicochemical; conditions: preliminary test using a small amount of the reaction product

## OC[C@H]1O[C@H](OC[C@H]2O[C@H](OC[C@H]3O[C@H](OC[C@H]4OC(O)[C@H](O)[C@@H](O)[C@@H]4O)[C@H](O)[C@@H](O)[C@@H]3O)[C@H](O)[C@@H](O)[C@@H]2O)[C@H](O)[C@@H](O)[C@@H]1O (stereo partly drawn) [Isomaltotetraose, isomaltotetraose]
[1]
  Formation of cycloisomaltotetraose: +

## OC[C@H]1O[C@H](OC[C@H]2O[C@H](OC[C@H]3O[C@H](OC[C@H]4O[C@H](OC[C@H]5OC(O)[C@H](O)[C@@H](O)[C@@H]5O)[C@H](O)[C@@H](O)[C@@H]4O)[C@H](O)[C@@H](O)[C@@H]3O)[C@H](O)[C@@H](O)[C@@H]2O)[C@H](O)[C@@H](O)[C@@H]1O (stereo partly drawn) [Isomaltopentaose, isomaltopentaose]
[1]
  Formation of cycloisomaltotetraose: ++
[2]
  reaction products formed from isomaltopentaose: produces cycloisomaltotetraose with isomaltotetraose, also slightly isomaltotriose, isomaltose, glucose and high molecular glucans

## OC[C@H]1O[C@H](OC[C@H]2O[C@H](OC[C@H]3O[C@H](OC[C@H]4O[C@H](OC[C@H]5O[C@H](OC[C@H]6O[C@H](OC[C@H]7OC(O)[C@H](O)[C@@H](O)[C@@H]7O)[C@H](O)[C@@H](O)[C@@H]6O)[C@H](O)[C@@H](O)[C@@H]5O)[C@H](O)[C@@H](O)[C@@H]4O)[C@H](O)[C@@H](O)[C@@H]3O)[C@H](O)[C@@H](O)[C@@H]2O)[C@H](O)[C@@H](O)[C@@H]1O (stereo partly drawn) [Isomaltoheptaose, isomaltoheptaose]
[1]
  Formation of cycloisomaltotetraose: +++

## OC[C@H]1O[C@H](OC[C@H]2O[C@H](OC[C@H]3OC(O)[C@H](O)[C@@H](O)[C@@H]3O)[C@H](O)[C@@H](O)[C@@H]2O)[C@H](O)[C@@H](O)[C@@H]1O (stereo partly drawn) [Isomaltotriose, isomaltotriose]
[1]
  Formation of cycloisomaltotetraose: -

## OC[C@H]1O[C@H](OC[C@H]2O[C@H](OC[C@H]3O[C@H](OC[C@H]4O[C@H](OC[C@H]5O[C@H](OC[C@H]6OC(O)[C@H](O)[C@@H](O)[C@@H]6O)[C@H](O)[C@@H](O)[C@@H]5O)[C@H](O)[C@@H](O)[C@@H]4O)[C@H](O)[C@@H](O)[C@@H]3O)[C@H](O)[C@@H](O)[C@@H]2O)[C@H](O)[C@@H](O)[C@@H]1O (stereo partly drawn) [Isomaltohexaose, isomaltohexaose]
[1]
  Formation of cycloisomaltotetraose: +++

## OC[C@H]1O[C@H](O[C@H]2[C@H](O)[C@@H](O)C(O)O[C@@H]2CO)[C@H](O)[C@@H](O)[C@@H]1O (mixture of isomers) [Maltose, maltose]
[1]
  Formation of cycloisomaltotetraose: -

## O[C@@H]1[C@@H](O)[C@H]2OC[C@H]3O[C@H](OC[C@H]4O[C@H](OC[C@H]5O[C@H](OC[C@@H](O2)[C@H]1O)[C@H](O)[C@@H](O)[C@@H]5O)[C@H](O)[C@@H](O)[C@@H]4O)[C@H](O)[C@@H](O)[C@@H]3O [cycloisomaltotetraose, cyclo{→6)-α-D-glucopyranosyl-(1→6)-α-D-glucopyranosyl-(1→6)-α-D-glucopyranosyl-(1→6)-α-D-glucopyranosyl-(1→}]
[3]
  remaining at 24 h: 91.6%
[4]; heating time 0 min
  Degree of coloring (A480nm): 0.000 A480nm
  Purity of cycloisomaltotetraose (% by weight): 99.5 % by weight
[4]; heating time 30 min
  Degree of coloring (A480nm): 0.000 A480nm
[4]; heating time 60 min
  Degree of coloring (A480nm): 0.000 A480nm
[4]; heating time 90 min
  Degree of coloring (A480nm): 0.000 A480nm
[4]; water, heating time 30 min, read-out: Purity of cycloisomaltotetraose (% by weight)
  remaining at 0.5 h: 99.5%
[4]; water, heating time 60 min, read-out: Purity of cycloisomaltotetraose (% by weight)
  remaining at 1 h: 99.5%
[4]; water, heating time 90 min, read-out: Purity of cycloisomaltotetraose (% by weight)
  remaining at 1.5 h: 99.5%
[5]; pH 3, Acetate buffer
  Degree of coloring (A480nm): 0.000 A480nm
  remaining at 24 h: 93.5%
[5]; pH 4, Acetate buffer
  Degree of coloring (A480nm): 0.000 A480nm
  remaining at 24 h: 99.4%
[5]; pH 5, Acetate buffer
  Degree of coloring (A480nm): 0.000 A480nm
  remaining at 24 h: 99.4%
[5]; pH 6, Tris-HCl buffer
  Degree of coloring (A480nm): 0.000 A480nm
  remaining at 24 h: 99.4%
[5]; pH 7, Tris-HCl buffer
  Degree of coloring (A480nm): 0.000 A480nm
  remaining at 24 h: 99.5%
[5]; pH 8, Tris-HCl buffer
  Degree of coloring (A480nm): 0.001 A480nm
  remaining at 24 h: 99.5%
[5]; pH 9, Ammonium buffer
  Degree of coloring (A480nm): 0.000 A480nm
  remaining at 24 h: 99.4%
α-glucosidase
  hydrolysis by α-glucosidase: not hydrolyzed
glucoamylase
  hydrolysis by glucoamylase: not hydrolyzed
[6]
  decomposition by alkaline treatment: not decomposed

## OC[C@H]1OC(O)[C@H](O)[C@@H](O)[C@@H]1O (stereo partly drawn) [D-Glucose, D-glucose]
[1]
  Formation of cycloisomaltotetraose: -

## OC[C@H]1O[C@H](OC[C@H]2OC(O)[C@H](O)[C@@H](O)[C@@H]2O)[C@H](O)[C@@H](O)[C@@H]1O (stereo partly drawn) [Isomaltose, isomaltose]
[1]
  Formation of cycloisomaltotetraose: -

## OCC1OC(OCC2OC(OC3C(CO)OC(O)C(O)C3O)C(O)C(O)C2O)C(O)C(O)C1O (stereo not drawn) [Panose, panose]
[1]
  Formation of cycloisomaltotetraose: -
